# According to publication PMC2191966 (The Journal of Experimental Medicine, 1995):
# Key:
# L-Db cells = format: cell-based, Murine; details: BFA; functional TAP complex; Fig. 6 a
# T2-Db cells [1] = format: cell-based; details: chloroquine: preincubation 80 μM, infection 60 μM, assay 5 μM; Fig. 6
# T2-Db cells [2] = test: 4-h 51Cr CTL assay, clone F5, T2-Db cells with added synthetic peptide; format: cell-based
# [3] = T2-Db lysate with protease inhibitors; Fig. 5
# T2-Kk cells = format: cell-based; details: Kk-restricted anti-[…] line, E:T 10:1, Fig. 9 e
molecule,measurement,setting,value
"C[C@H]1CCC/C=C/[C@@H]2C[C@H](O)C[C@H]2[C@H](O)/C=C/C(=O)O1 [BFA, brefeldin A]",effect on presentation of L+ and L- polypeptides in L-Db cells,L-Db cells,Inhibition of presentation of both the L+ and L-polypeptides in L-Db cells
CCN(CC)CCCC(C)Nc1ccnc2cc(Cl)ccc12 (stereo not drawn) [chloroquine],effect on processing and presentation of L+M364 and L+IMP in T2-Db cells,T2-Db cells [1],no effect
IASNENMDAM [365-374],relative potency in sensitizing T2-Db cells for lysis,"T2-Db cells [2]; relative to 366-374, Fig. 3 a",followed by 365-374
MASNENMDAM [M366-374],in vitro degradation after cell lysis,[3],Little in vitro degradation of M366-374 occurs after cell lysis
QIASNENMDAM [364-374],loss of potency in sensitizing T2-Db cells for lysis (fold less potent),T2-Db cells [2]; Fig. 3 a,"over 10,000 fold"
SDYEGRLI,lowest peptide concentration at which pulsed T2 transfectants are recognized,T2-Kk cells,≤ 0.5 nM
